US11331364B2, “Use for JNK inhibitor molecules for treatment of various diseases” (Xigen Inflammation Ltd., priority 2014, dated 2022)
Square brackets hold non-standard residues; d marks the D form. Peptide text beside a SMILES is read from it.

Key:
hJNK1 = target: T1, hJNK1 (Homo sapiens, UniProt P45983); assay: hJNK1 | IC50; conditions: read-out: hJNK1 | IC50
T1 construct: His; purchased Upstate 14-327
From the text: (§1) Table printed on a drawing sheet, Fig. 4
Head of the field: hJNK1 | IC50
(§2) The patent's description of the figure: FIG. 4: Table illustrating the inhibitory efficacy of several JNK inhibitors according to the present invention, which are fusion proteins of a JNK inhibitory (poly-)peptide sequence and a transporter sequence. Given are the IC50 values in the nM range, the respective standard error of the mean (SEM) and the number of experiments performed (n).
(§3) First copying reader's note: The sheet prints no unit for IC50 (the description says nM range); decimal commas are used, except for three IC50 cells printed with a point (3820.81, 5340.33, 8130.86).
Where the first naming reader finds the target: head: hJNK1 | IC50

hJNK2 = hJNK2 (Homo sapiens, UniProt P45984); assay: hJNK2 | IC50; conditions: read-out: hJNK2 | IC50
From the text: as §1
Head of the field: hJNK2 | IC50
as §2, §3
Where the first naming reader finds the target: head: hJNK2 | IC50

hJNK3 = hJNK3 (Homo sapiens, UniProt P53779); assay: hJNK3 | IC50; conditions: read-out: hJNK3 | IC50
From the text: as §1
Head of the field: hJNK3 | IC50
as §2, §3
Where the first naming reader finds the target: head: hJNK3 | IC50

T1 sequence (P45983 whole entry, looked up): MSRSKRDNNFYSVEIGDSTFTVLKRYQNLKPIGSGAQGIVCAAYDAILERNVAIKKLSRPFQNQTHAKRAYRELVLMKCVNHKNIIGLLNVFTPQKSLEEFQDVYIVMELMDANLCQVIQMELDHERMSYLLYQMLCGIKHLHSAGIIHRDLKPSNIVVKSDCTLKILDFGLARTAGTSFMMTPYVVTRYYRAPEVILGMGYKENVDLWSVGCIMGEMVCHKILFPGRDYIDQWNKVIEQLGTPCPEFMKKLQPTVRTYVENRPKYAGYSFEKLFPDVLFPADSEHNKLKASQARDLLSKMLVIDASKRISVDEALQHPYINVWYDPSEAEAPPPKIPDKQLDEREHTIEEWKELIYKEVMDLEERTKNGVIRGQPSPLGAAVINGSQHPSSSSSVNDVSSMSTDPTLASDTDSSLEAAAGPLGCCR
Sequence of hJNK2 (P45984 whole entry, looked up): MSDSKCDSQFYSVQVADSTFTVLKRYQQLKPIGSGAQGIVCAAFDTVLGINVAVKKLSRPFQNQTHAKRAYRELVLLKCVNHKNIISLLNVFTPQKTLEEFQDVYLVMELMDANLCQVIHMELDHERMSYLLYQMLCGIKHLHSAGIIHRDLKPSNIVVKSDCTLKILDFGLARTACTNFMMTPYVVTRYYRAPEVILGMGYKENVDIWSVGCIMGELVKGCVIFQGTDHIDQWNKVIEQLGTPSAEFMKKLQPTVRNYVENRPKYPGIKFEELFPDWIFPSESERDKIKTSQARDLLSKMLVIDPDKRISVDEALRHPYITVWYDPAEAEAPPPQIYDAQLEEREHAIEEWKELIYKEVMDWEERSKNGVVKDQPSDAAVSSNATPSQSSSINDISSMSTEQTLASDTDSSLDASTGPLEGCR
Sequence of hJNK3 (P53779 whole entry, looked up): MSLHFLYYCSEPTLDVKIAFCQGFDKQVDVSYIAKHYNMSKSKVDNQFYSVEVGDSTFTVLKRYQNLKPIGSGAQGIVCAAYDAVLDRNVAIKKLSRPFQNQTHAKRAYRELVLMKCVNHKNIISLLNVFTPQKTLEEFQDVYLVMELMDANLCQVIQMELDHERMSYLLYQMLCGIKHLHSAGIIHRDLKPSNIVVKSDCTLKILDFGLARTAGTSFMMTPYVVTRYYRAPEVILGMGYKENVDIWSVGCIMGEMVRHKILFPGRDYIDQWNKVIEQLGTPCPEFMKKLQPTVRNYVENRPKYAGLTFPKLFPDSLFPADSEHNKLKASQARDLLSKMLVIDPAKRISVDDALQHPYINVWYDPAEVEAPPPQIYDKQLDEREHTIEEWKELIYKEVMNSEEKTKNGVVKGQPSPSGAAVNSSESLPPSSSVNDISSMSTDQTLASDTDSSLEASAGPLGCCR

SMILES | IC50 (hJNK1) [nM] | IC50 (hJNK2) [nM] | IC50 (hJNK3) [nM]
CC(C)C[C@H](NC(=O)[C@H](CC(N)=O)NC(=O)[C@H](CC(C)C)NC(=O)[C@@H](NC(=O)[C@@H](C)NC(=O)[C@@H]1CCCN1C(=O)[C@H](CCCNC(=N)N)NC(=O)[C@H](CCCCN)NC(=O)[C@@H](CCCNC(=N)N)NC(=O)[C@H](CCCNC(=N)N)NC(=O)[C@H](CCC(N)=O)NC(=O)[C@@H](CCCNC(=N)N)NC(=O)[C@H](CCCNC(=N)N)NC(=O)[C@H](CCCCN)NC(=O)[C@H](CCCCN)NC(=O)[C@H](N)CCCNC(=N)N)[C@@H](C)O)C(=O)N[C@H](Cc1ccccc1)C(N)=O [SEQ ID NO: 184, rKKRrQRrKRPaTLNLf] (H-[dR]KKR[dR]QR[dR]KRP[dA]TLNL[dF]-NH2) | 2430 | 206 | 129
CC(C)C[C@H](NC(=O)[C@H](CC(N)=O)NC(=O)[C@H](CC(C)C)NC(=O)[C@@H](NC(=O)[C@@H](CO)NC(=O)[C@@H]1CCCN1C(=O)[C@H](CCCNC(=N)N)NC(=O)[C@@H](CCCCN)NC(=O)[C@@H]1CCCN1C(=O)[C@H](CCCNC(=N)N)NC(=O)[C@@H](CCCNC(=N)N)NC(=O)[C@H](CCCNC(=N)N)NC(=O)[C@H](CCCNC(=N)N)NC(=O)[C@H](CCC(N)=O)NC(=O)[C@@H](CCCNC(=N)N)NC(=O)[C@H](CCCNC(=N)N)NC(=O)[C@H](CCCCN)NC(=O)[C@H](CCCCN)NC(=O)[C@H](N)CCCNC(=N)N)[C@@H](C)O)C(=O)N[C@H](Cc1ccccc1)C(N)=O [SEQ ID NO: 185, rKKRrQRRrRPkRPsTLNLf] (H-[dR]KKR[dR]QRR[dR]RP[dK]RP[dS]TLNL[dF]-NH2) | 766 | 72.1 | 35.5
CC(C)C[C@H](NC(=O)[C@H](CC(N)=O)NC(=O)[C@H](CC(C)C)NC(=O)[C@@H](NC(=O)[C@@H](CCC(N)=O)NC(=O)[C@@H]1CCCN1C(=O)[C@H](CCCNC(=N)N)NC(=O)[C@@H](CCCCN)NC(=O)[C@@H]1CCCN1C(=O)[C@H](CCCNC(=N)N)NC(=O)[C@@H](CCCNC(=N)N)NC(=O)[C@H](CCCNC(=N)N)NC(=O)[C@H](CCCNC(=N)N)NC(=O)[C@H](CCC(N)=O)NC(=O)[C@@H](CCCNC(=N)N)NC(=O)[C@H](CCCNC(=N)N)NC(=O)[C@H](CCCCN)NC(=O)[C@H](CCCCN)NC(=O)[C@H](N)CCCNC(=N)N)[C@@H](C)O)C(=O)N[C@H](Cc1ccccc1)C(N)=O [SEQ ID NO: 186, rKKRrQRRrRPkRPqTLNLf] (H-[dR]KKR[dR]QRR[dR]RP[dK]RP[dQ]TLNL[dF]-NH2) | 1020 | 52.6 | 44.2
CC(C)C[C@H](NC(=O)[C@H](CC(N)=O)NC(=O)[C@H](CC(C)C)NC(=O)[C@@H](NC(=O)[C@@H](CCCCN)NC(=O)[C@@H]1CCCN1C(=O)[C@H](CCCNC(=N)N)NC(=O)[C@@H](CCCCN)NC(=O)[C@@H]1CCCN1C(=O)[C@H](CCCNC(=N)N)NC(=O)[C@@H](CCCNC(=N)N)NC(=O)[C@H](CCCNC(=N)N)NC(=O)[C@H](CCCNC(=N)N)NC(=O)[C@H](CCC(N)=O)NC(=O)[C@@H](CCCNC(=N)N)NC(=O)[C@H](CCCNC(=N)N)NC(=O)[C@H](CCCCN)NC(=O)[C@H](CCCCN)NC(=O)[C@H](N)CCCNC(=N)N)[C@@H](C)O)C(=O)N[C@H](Cc1ccccc1)C(N)=O [SEQ ID NO: 187, rKKRrQRRrRPkRPkTLNLf] (H-[dR]KKR[dR]QRR[dR]RP[dK]RP[dK]TLNL[dF]-NH2) | 594 | 37.9 | 25.4
CC(C)C[C@H](NC(=O)[C@H](C)NC(=O)[C@H](CCCCN)NC(=O)[C@H](CCCNC(=N)N)NC(=O)[C@H](CCCCN)NC(=O)CNC(=O)[C@@H](CCCNC(=N)N)NC(=O)[C@H](CCCNC(=N)N)NC(=O)[C@H](CCCNC(=N)N)NC(=O)[C@H](CCC(N)=O)NC(=O)[C@@H](CCCNC(=N)N)NC(=O)[C@H](CCCNC(=N)N)NC(=O)[C@H](CCCCN)NC(=O)[C@H](CCCCN)NC(=O)[C@H](N)CCCNC(=N)N)C(=O)N[C@@H](CCCCN)C(=O)N[C@@H](CC(C)C)C(=O)N[C@H](Cc1ccccc1)C(N)=O [SEQ ID NO: 188] (H-[dR]KKR[dR]QRR[dR]GKRKALKL[dF]-NH2) | 1420 | 98.1 | 36.1
